Source: patent publication US10093630B2, “Pyrazole compounds and methods of making and using same” (ABIDE THERAPEUTICS, INC., priority 2014, dated 2018)

Experiments:
Assay in all cases: In vitro competitive activity-based protein profiling (gel-based, FP-Rh or HT-01 probe)
Assay type in all cases: biochemical
MAGL = biological target: T1, MAGL (Mus musculus, UniProt O35678); conditions: for inhibition at 1 µM: 1 μM inhibitor; for inhibition at 10 µM: 10 μM inhibitor; for IC50: mouse brain membrane fraction or cell lysates, 30 min preincubation at 37° C., read-out: Mouse (IC50 value, nM) MAGL
T1 construct: Proteomes (mouse brain membrane fraction or cell lysates); from tissue; host or cells: mouse brain membrane fraction (or cell lysates, not specified)
T1 sequence (O35678 1-303): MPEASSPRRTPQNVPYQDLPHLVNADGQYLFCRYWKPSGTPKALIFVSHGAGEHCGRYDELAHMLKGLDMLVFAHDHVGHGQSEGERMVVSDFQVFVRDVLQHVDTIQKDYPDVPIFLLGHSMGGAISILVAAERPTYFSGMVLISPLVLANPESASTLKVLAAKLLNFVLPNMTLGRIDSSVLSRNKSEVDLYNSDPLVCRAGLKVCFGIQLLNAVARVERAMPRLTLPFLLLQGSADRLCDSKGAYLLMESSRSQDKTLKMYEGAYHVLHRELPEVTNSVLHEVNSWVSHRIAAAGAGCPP
Procedure: (§1) In Vitro Competitive Activity-Based Protein Profiling.
(§2) Proteomes (mouse brain membrane fraction or cell lysates) (50 μL, 1.0 mg/mL total protein concentration) were preincubated with varying concentrations of inhibitors at 37° C. After 30 min, FP-Rh or HT-01 ([…], 50 μM in DMSO) was added and the mixture was incubated for another 30 min at 37° C. Reactions were quenched with SDS loading buffer (15 μL—4×) and run on SDS-PAGE. Following gel imaging, serine hydrolase activity was determined by measuring fluorescent intensity of gel bands corresponding to MAGL, ABHD6, FAAH, and PLA2G7 using ImageJ 1.43u software.

PLA2G7 = biological target: T2, PLA2G7 (Mus musculus, UniProt Q60963); conditions: for inhibition at 1 µM: 1 μM inhibitor, read-out: % Inhibition at 1 μM, D = PLA2G7; for inhibition at 10 µM: 10 μM inhibitor, read-out: % Inhibition at 10 μM, D = PLA2G7
T2 construct: Proteomes (mouse brain membrane fraction or cell lysates); from tissue; host or cells: mouse brain membrane fraction (or cell lysates, not specified)
T2 sequence (Q60963 22-440): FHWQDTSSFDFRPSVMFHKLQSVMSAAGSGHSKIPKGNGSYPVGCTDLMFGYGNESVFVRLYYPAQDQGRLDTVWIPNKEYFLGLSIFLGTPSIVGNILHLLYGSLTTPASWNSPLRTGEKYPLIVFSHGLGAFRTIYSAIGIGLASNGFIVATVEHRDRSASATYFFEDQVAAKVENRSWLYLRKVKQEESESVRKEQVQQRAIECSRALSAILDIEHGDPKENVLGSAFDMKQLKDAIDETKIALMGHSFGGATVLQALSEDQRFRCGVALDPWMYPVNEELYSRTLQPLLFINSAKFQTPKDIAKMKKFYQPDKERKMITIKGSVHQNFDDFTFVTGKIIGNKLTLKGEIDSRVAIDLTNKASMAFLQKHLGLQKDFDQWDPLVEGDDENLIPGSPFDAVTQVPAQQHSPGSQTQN
Procedure: as §1, §2

ABHD6 = biological target: T3, ABHD6 (Mus musculus, UniProt Q8R2Y0); conditions: for inhibition at 1 µM: 1 μM inhibitor, read-out: % Inhibition at 1 μM, C = ABHD6; for inhibition at 10 µM: 10 μM inhibitor, read-out: % Inhibition at 10 μM, C = ABHD6
T3 construct: Proteomes (mouse brain membrane fraction or cell lysates); from tissue; host or cells: mouse brain membrane fraction (or cell lysates, not specified)
T3 sequence (Q8R2Y0 1-336): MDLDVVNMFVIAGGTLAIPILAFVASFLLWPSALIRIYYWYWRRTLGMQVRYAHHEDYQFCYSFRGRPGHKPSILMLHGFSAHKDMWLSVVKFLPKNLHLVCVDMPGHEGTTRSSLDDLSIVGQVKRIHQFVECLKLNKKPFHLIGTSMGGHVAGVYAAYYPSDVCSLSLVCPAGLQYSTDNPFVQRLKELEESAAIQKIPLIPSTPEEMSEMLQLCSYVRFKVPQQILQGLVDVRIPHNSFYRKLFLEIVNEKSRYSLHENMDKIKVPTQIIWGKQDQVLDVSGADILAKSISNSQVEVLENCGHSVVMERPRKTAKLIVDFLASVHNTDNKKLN
Procedure: as §1, §2

FAAH = biological target: T4, FAAH (Mus musculus, UniProt O08914); conditions: for inhibition at 1 µM: 1 μM inhibitor, read-out: % Inhibition at 1 μM, B = FAAH; for inhibition at 10 µM: 10 μM inhibitor, read-out: % Inhibition at 10 μM, B = FAAH
T4 construct: Proteomes (mouse brain membrane fraction or cell lysates); from tissue; host or cells: mouse brain membrane fraction (or cell lysates, not specified)
T4 sequence (O08914 1-579): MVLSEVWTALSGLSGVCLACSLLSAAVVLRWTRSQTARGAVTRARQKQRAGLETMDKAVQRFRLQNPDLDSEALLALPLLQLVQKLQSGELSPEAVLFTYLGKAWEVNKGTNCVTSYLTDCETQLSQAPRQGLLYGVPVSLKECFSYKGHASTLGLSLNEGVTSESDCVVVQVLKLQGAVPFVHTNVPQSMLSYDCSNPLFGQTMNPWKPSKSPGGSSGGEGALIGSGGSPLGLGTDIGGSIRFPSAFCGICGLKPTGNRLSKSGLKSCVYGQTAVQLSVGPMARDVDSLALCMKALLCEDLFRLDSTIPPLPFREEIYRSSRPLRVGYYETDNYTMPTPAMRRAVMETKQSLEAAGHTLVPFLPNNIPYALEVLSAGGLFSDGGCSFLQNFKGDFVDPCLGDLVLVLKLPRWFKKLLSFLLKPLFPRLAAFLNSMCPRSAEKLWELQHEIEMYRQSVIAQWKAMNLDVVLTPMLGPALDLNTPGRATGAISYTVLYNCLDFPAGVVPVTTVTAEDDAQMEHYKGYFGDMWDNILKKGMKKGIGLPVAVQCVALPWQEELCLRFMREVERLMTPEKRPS
Procedure: as §1, §2

## CC(C)(C)OC(=O)N1CCN(C(=O)n2cccn2)CC1 [Example 4, tert-Butyl 4-(1H-pyrazole-1-carbonyl)piperazine-1-carboxylate]
MAGL
  inhibition at 1 µM: < 25%
  inhibition at 10 µM: 25 to 75%
PLA2G7
  inhibition at 1 µM: < 25%
  inhibition at 10 µM: > 75%
ABHD6
  inhibition at 1 µM: 25 to 75%
  inhibition at 10 µM: > 75%
FAAH
  inhibition at 1 µM: > 75%
  inhibition at 10 µM: > 75%

## Cc1cnn(C(=O)N2CCN(C(=O)OC(C)(C)C)CC2)c1 [Example 5, tert-Butyl 4-(4-methyl-1H-pyrazole-1-carbonyl)piperazine-1-carboxylate]
MAGL
  inhibition at 1 µM: < 25%
  inhibition at 10 µM: 25 to 75%
PLA2G7
  inhibition at 1 µM: > 75%
  inhibition at 10 µM: > 75%
ABHD6
  inhibition at 1 µM: 25 to 75%
  inhibition at 10 µM: > 75%
FAAH
  inhibition at 1 µM: < 25%
  inhibition at 10 µM: > 75%

## CC(C)(C)OC(=O)N1CCN(C(=O)n2cc(C#N)cn2)CC1 [Example 6, tert-Butyl 4-(4-cyano-1H-pyrazole-1-carbonyl)piperazine-1-carboxylate]
MAGL
  inhibition at 1 µM: > 75%
  inhibition at 10 µM: > 75%
PLA2G7
  inhibition at 1 µM: > 75%
  inhibition at 10 µM: > 75%
ABHD6
  inhibition at 1 µM: > 75%
  inhibition at 10 µM: > 75%
FAAH
  inhibition at 1 µM: > 75%
  inhibition at 10 µM: > 75%

## O=C(N1CCN(Cc2ccccc2)CC1)n1cccn1 [Example 7, (4-Benzylpiperazin-1-yl)(1H-pyrazol-1-yl)methanone]
MAGL
  inhibition at 1 µM: > 75%
  inhibition at 10 µM: > 75%
PLA2G7
  inhibition at 1 µM: < 25%
  inhibition at 10 µM: < 25%
ABHD6
  inhibition at 1 µM: < 25%
  inhibition at 10 µM: > 75%
FAAH
  inhibition at 1 µM: < 25%
  inhibition at 10 µM: > 75%

## Cc1cnn(C(=O)N2CCN(Cc3ccccc3)CC2)c1 [Example 8, (4-Benzylpiperazin-1-yl)(4-methyl-1H-pyrazol-1-yl)methanone]
MAGL
  inhibition at 1 µM: 25 to 75%
  inhibition at 10 µM: > 75%
PLA2G7
  inhibition at 1 µM: < 25%
  inhibition at 10 µM: > 75%
ABHD6
  inhibition at 1 µM: > 75%
  inhibition at 10 µM: > 75%
FAAH
  inhibition at 1 µM: < 25%
  inhibition at 10 µM: 25 to 75%

## N#Cc1cnn(C(=O)N2CCN(Cc3ccccc3)CC2)c1 [Example 9, 1-(4-Benzylpiperazine-1-carbonyl)-1H-pyrazole-4-carbonitrile]
MAGL
  inhibition at 1 µM: > 75%
  inhibition at 10 µM: > 75%
  IC50: < 100 nM
PLA2G7
  inhibition at 1 µM: > 75%
  inhibition at 10 µM: > 75%
ABHD6
  inhibition at 1 µM: > 75%
  inhibition at 10 µM: > 75%
ABHD6; mouse brain membrane fraction or cell lysates, 30 min preincubation at 37° C., read-out: Mouse (IC50 value, nM) ABHD6
  IC50: < 100 nM
FAAH
  inhibition at 1 µM: > 75%
  inhibition at 10 µM: > 75%
FAAH; mouse brain membrane fraction or cell lysates, 30 min preincubation at 37° C., read-out: Mouse (IC50 value, nM) FAAH
  IC50: 100 to 1000 nM

## O=C(N1CCN(Cc2ccc3ccccc3c2)CC1)n1cccn1 [Example 10, (4-(naphthalen-2-ylmethyl)piperazin-1-yl)(1H-pyrazol-1-yl)methanone]
MAGL
  inhibition at 1 µM: > 75%
  inhibition at 10 µM: > 75%
  IC50: < 100 nM
PLA2G7
  inhibition at 1 µM: < 25%
  inhibition at 10 µM: < 25%
ABHD6
  inhibition at 1 µM: > 75%
  inhibition at 10 µM: > 75%
FAAH
  inhibition at 1 µM: > 75%
  inhibition at 10 µM: > 75%

## Cc1cnn(C(=O)N2CCN(Cc3ccc4ccccc4c3)CC2)c1 [Example 11, (4-Methyl-1H-pyrazol-1-yl)(4-(naphthalen-2-ylmethyl)piperazin-1-yl)methanone]
MAGL
  inhibition at 1 µM: > 75%
  inhibition at 10 µM: > 75%
PLA2G7
  inhibition at 1 µM: < 25%
  inhibition at 10 µM: > 75%
ABHD6
  inhibition at 1 µM: > 75%
  inhibition at 10 µM: > 75%
FAAH
  inhibition at 1 µM: < 25%
  inhibition at 10 µM: 25 to 75%

## N#Cc1cnn(C(=O)N2CCN(Cc3ccc4ccccc4c3)CC2)c1 [Example 12, 1-(4-(Naphthalen-2-ylmethyl)piperazine-1-carbonyl)-1H-pyrazole-4-carbonitrile]
MAGL
  inhibition at 1 µM: > 75%
  inhibition at 10 µM: > 75%
PLA2G7
  inhibition at 1 µM: > 75%
  inhibition at 10 µM: > 75%
ABHD6
  inhibition at 1 µM: > 75%
  inhibition at 10 µM: > 75%
FAAH
  inhibition at 1 µM: > 75%
  inhibition at 10 µM: > 75%
